Laboratory results taken from US20050209157A1, “Short bioactive peptides and methods for their use” (priority 2001, published 2005).
Converted amounts (≈) assume the structure as drawn. No end group written: not given here.

Experiments:
[1] = test system: Stapholococcus aureus ATCC 25923; assay: Antimicrobial assay I, modified protocol (tryptic soy broth), MBC; conditions: minimum bactericidal concentration, Table 4
Procedure: (§1) The preparation of all media, stock solutions, and dilutions took place in a laminar flow hood to prevent contamination. Bacterial cells were freshly grown on antibiotic medium 2 agar slants (pH 7.0 at 25° C.). Bacteria were suspended and diluted in antibiotic medium 3 to about 10^4 cfu/ml and used as the inoculum. Sample solutions (100 μl/well) were added to plates according to the plate layout. Inoculum (100 μl/well) was added to achieve a final concentration of 5×10^3 cfu/ml. Negative controls received 100 μl saline and 100 μl growth medium. Positive controls received 100 μl saline and 100 μl inoculum. Bacterial plates were incubated at 37° C. for 24 hours.
(§2) However, the data for Table 4 were obtained with a modified protocol wherein the medium was tryptic soy broth, inocolum strength was approximately 10^4 CFU per ml, and values determined were minimum bactericidal concentrations (MBC) or minimum fungicidal concentrations (MFC).
(§3) MBC or MFC values are in μg/mL. E. coli is Escherichia coli ATCC accession number 25922; P. aerug is Pseudomonas aeruginosa ATCC accession number 27853, S. aur. is Stapholococcus aureus ATCC accession number 25923; Candida is Candida albicans ATCC accession number 10231.

[2] = test system: Pseudomonas aeruginosa ATCC 27853; assay: as above; conditions: minimum bactericidal concentration, Table 4
[3] = test system: Escherichia coli ATCC 25922; assay: as above; conditions: minimum bactericidal concentration, Table 4
[4] = test system: Candida albicans ATCC 10231; assay: Antimicrobial assay I, modified protocol (tryptic soy broth), MFC; conditions: minimum fungicidal concentration, Table 4
Procedure: as §1, §2, §3

CC(C)C[C@H](NC(=O)[C@H](CCCCN)NC(=O)[C@H](CC(C)C)NC(=O)[C@H](Cc1c[nH]c2ccccc12)NC(=O)[C@H](CCCCN)NC(=O)[C@H](CCCCN)NC(=O)[C@H](C)NC(=O)[C@H](Cc1c[nH]c2ccccc12)NC(=O)[C@H](CCCCN)NC(=O)[C@H](CCCCN)NC(=O)[C@H](Cc1c[nH]c2ccccc12)NC(=O)[C@H](CC(C)C)NC(=O)[C@@H](N)CCCCN)C(=O)N[C@@H](Cc1c[nH]c2ccccc12)C(=O)N[C@@H](CCCCN)C(=O)N[C@@H](C)C(=O)O [compound 164]
MBC S. aur A.25923 [1]: 25 µg/mL (≈ 11.7 µM) | MBC P. aerug A.27853 [2]: 25 µg/mL (≈ 11.7 µM) | MBC E. coli A.25922 [3]: 25 µg/mL (≈ 11.7 µM) | MFC Candida A.10231 [4]: 25 µg/mL (≈ 11.7 µM)

CC(C)C[C@H](NC(=O)[C@H](CCCCN)NC(=O)[C@H](CC(C)C)NC(=O)[C@H](CCCCN)NC(=O)[C@H](CC(C)C)NC(=O)[C@H](C)NC(=O)[C@H](CCCCN)NC(=O)[C@H](C)NC(=O)[C@H](CC(C)C)NC(=O)[C@H](CC(C)C)NC(=O)[C@H](CCCCN)NC(=O)[C@H](C)NC(=O)[C@@H](N)Cc1ccccc1)C(N)=O [compound 101]
MBC S. aur A.25923 [1]: >50 µg/mL | MBC P. aerug A.27853 [2]: >50 µg/mL | MBC E. coli A.25922 [3]: 300 µg/mL (≈ 206 µM) | MFC Candida A.10231 [4]: 40 µg/mL (≈ 27.5 µM)

KWKLF-NH2 [compound 131]
MBC S. aur A.25923 [1]: INACT | MBC P. aerug A.27853 [2]: INACT | MBC E. coli A.25922 [3]: INACT | MFC Candida A.10231 [4]: INACT

FAKLF-NH2 [compound 129]
MBC S. aur A.25923 [1]: INACT | MBC P. aerug A.27853 [2]: INACT | MBC E. coli A.25922 [3]: INACT | MFC Candida A.10231 [4]: INACT

FALALKA-NH2 [compound 141]
MBC S. aur A.25923 [1]: INACT | MBC P. aerug A.27853 [2]: INACT | MBC E. coli A.25922 [3]: INACT | MFC Candida A.10231 [4]: INACT

CC(C)C[C@H](NC(=O)[C@H](C)NC(=O)[C@H](CCCCN)NC(=O)[C@H](C)NC(=O)[C@H](CC(C)C)NC(=O)[C@H](CCCCN)NC(=O)[C@H](C)NC(=O)[C@H](CC(C)C)NC(=O)[C@H](CCCCN)NC(=O)[C@H](C)NC(=O)[C@H](CC(C)C)NC(=O)[C@H](CCCCN)NC(=O)[C@H](CCCCN)NC(=O)[C@H](C)NC(=O)[C@H](CC(C)C)NC(=O)[C@@H](N)CCCCN)C(=O)O [compound 160]
MBC S. aur A.25923 [1]: >250 µg/mL | MBC P. aerug A.27853 [2]: >250 µg/mL | MBC E. coli A.25922 [3]: >250 µg/mL | MFC Candida A.10231 [4]: >250 µg/mL

CC(C)C[C@H](NC(=O)[C@H](CC(C)C)NC(=O)[C@H](CCCCN)NC(=O)[C@H](C)NC(=O)[C@H](CC(C)C)NC(=O)[C@H](C)NC(=O)[C@H](CCCCN)NC(=O)[C@H](CCCCN)NC(=O)[C@H](C)NC(=O)[C@H](CC(C)C)NC(=O)[C@H](CCCCN)NC(=O)[C@H](C)NC(=O)[C@@H](N)CCCCN)C(N)=O [compound 149]
MBC S. aur A.25923 [1]: >250 µg/mL | MBC P. aerug A.27853 [2]: >250 µg/mL | MBC E. coli A.25922 [3]: 150 µg/mL (≈ 108 µM) | MFC Candida A.10231 [4]: 100 µg/mL (≈ 71.7 µM)

CC(C)C[C@H](NC(=O)[C@H](CCCCN)NC(=O)[C@H](CCCCN)NC(=O)[C@H](Cc1c[nH]c2ccccc12)NC(=O)[C@@H](N)CCCCN)C(N)=O [compound 173]
MBC S. aur A.25923 [1]: >250 µg/mL | MBC P. aerug A.27853 [2]: >250 µg/mL | MBC E. coli A.25922 [3]: >250 µg/mL | MFC Candida A.10231 [4]: 150 µg/mL (≈ 214 µM)

CC(C)C[C@H](NC(=O)[C@H](CC(C)C)NC(=O)[C@H](CCCCN)NC(=O)[C@H](CCCCN)NC(=O)[C@H](C)NC(=O)[C@H](CC(C)C)NC(=O)[C@H](CCCCN)NC(=O)[C@H](C)NC(=O)[C@@H](N)Cc1ccccc1)C(N)=O [compound 60]
MBC S. aur A.25923 [1]: >50 µg/mL | MBC P. aerug A.27853 [2]: >50 µg/mL | MBC E. coli A.25922 [3]: >50 µg/mL | MFC Candida A.10231 [4]: >50 µg/mL

FAKLLAKLAKKFAL-NH2 [compound 120]
MBC S. aur A.25923 [1]: INACT | MBC P. aerug A.27853 [2]: INACT | MBC E. coli A.25922 [3]: INACT | MFC Candida A.10231 [4]: INACT

CC(C)C[C@H](NC(=O)[C@H](CCCCN)NC(=O)[C@H](C)NC(=O)[C@H](CC(C)C)NC(=O)[C@H](CC(C)C)NC(=O)[C@H](CCCCN)NC(=O)[C@H](C)NC(=O)[C@@H](N)Cc1ccccc1)C(=O)N[C@@H](C)C(=O)N[C@@H](CCCCN)C(=O)N[C@@H](CCCCN)C(=O)N[C@@H](C)C(=O)N[C@@H](C)C(N)=O [compound 93]
MBC S. aur A.25923 [1]: >50 µg/mL | MBC P. aerug A.27853 [2]: >50 µg/mL | MBC E. coli A.25922 [3]: >50 µg/mL | MFC Candida A.10231 [4]: >50 µg/mL

CC(C)C[C@H](NC(=O)[C@H](C)NC(=O)[C@H](C)NC(=O)[C@H](CCCCN)NC(=O)[C@H](C)NC(=O)[C@H](CC(C)C)NC(=O)[C@H](CCCCN)NC(=O)[C@H](CCCCN)NC(=O)[C@H](C)NC(=O)[C@H](CC(C)C)NC(=O)[C@H](CCCCN)NC(=O)[C@H](CCCCN)NC(=O)[C@H](C)NC(=O)[C@@H](N)Cc1ccccc1)C(N)=O [compound 76]
MBC S. aur A.25923 [1]: >55 µg/mL | MBC P. aerug A.27853 [2]: >55 µg/mL | MBC E. coli A.25922 [3]: 40 µg/mL (≈ 26.7 µM) | MFC Candida A.10231 [4]: >50 µg/mL

FAKLLFKALKKAL-NH2 [compound 112]
MBC S. aur A.25923 [1]: INACT | MBC P. aerug A.27853 [2]: INACT | MBC E. coli A.25922 [3]: 30 µg/mL | MFC Candida A.10231 [4]: INACT

CC(C)C[C@H](NC(=O)[C@H](CC(C)C)NC(=O)[C@H](C)NC(=O)[C@H](CCCCN)NC(=O)[C@H](C)NC(=O)[C@H](CC(C)C)NC(=O)[C@H](CCCCN)NC(=O)[C@H](CCCCN)NC(=O)[C@H](C)NC(=O)[C@@H](N)Cc1ccccc1)C(N)=O [compound 58]
MBC S. aur A.25923 [1]: >50 µg/mL | MBC P. aerug A.27853 [2]: >50 µg/mL | MBC E. coli A.25922 [3]: >50 µg/mL | MFC Candida A.10231 [4]: >50 µg/mL

FAKLLAKLAKKIL-NH2 [compound 125]
MBC S. aur A.25923 [1]: INACT | MBC P. aerug A.27853 [2]: 40 µg/mL | MBC E. coli A.25922 [3]: 40 µg/mL | MFC Candida A.10231 [4]: 40 µg/mL

CC(C)C[C@H](NC(=O)[C@H](C)NC(=O)[C@H](CCCCN)NC(=O)[C@H](CCCCN)NC(=O)[C@H](C)NC(=O)[C@H](CC(C)C)NC(=O)[C@H](CCCCN)NC(=O)[C@H](C)NC(=O)[C@H](CC(C)C)NC(=O)[C@H](CC(C)C)NC(=O)[C@H](CCCCN)NC(=O)[C@H](C)NC(=O)[C@@H](N)Cc1ccc(O)cc1)C(N)=O [compound 155]
MBC S. aur A.25923 [1]: >250 µg/mL | MBC P. aerug A.27853 [2]: >250 µg/mL | MBC E. coli A.25922 [3]: >250 µg/mL | MFC Candida A.10231 [4]: >250 µg/mL

CC(C)C[C@H](NC(=O)CNC(=O)[C@H](CCCCN)NC(=O)[C@H](CCCCN)NC(=O)[C@H](C)NC(=O)[C@H](CC(C)C)NC(=O)[C@H](CCCCN)NC(=O)[C@H](C)NC(=O)[C@H](CC(C)C)NC(=O)[C@H](CC(C)C)NC(=O)[C@H](CCCCN)NC(=O)[C@H](C)NC(=O)[C@@H](N)Cc1ccccc1)C(N)=O [compound 152]
MBC S. aur A.25923 [1]: >250 µg/mL | MBC P. aerug A.27853 [2]: 150 µg/mL (≈ 107 µM) | MBC E. coli A.25922 [3]: 150 µg/mL (≈ 107 µM) | MFC Candida A.10231 [4]: 50 µg/mL (≈ 35.7 µM)

FAKLWAKLAKKL-NH2 [compound 136]
MBC S. aur A.25923 [1]: INACT | MBC P. aerug A.27853 [2]: INACT | MBC E. coli A.25922 [3]: INACT | MFC Candida A.10231 [4]: INACT

FAKLWAKLAFGKGIGKVGKKLL-NH2 [compound 135]
MBC S. aur A.25923 [1]: INACT | MBC P. aerug A.27853 [2]: 40 µg/mL | MBC E. coli A.25922 [3]: INACT | MFC Candida A.10231 [4]: 25 µg/mL

CC[C@H](C)[C@H](NC(=O)[C@H](CCCCN)NC(=O)[C@H](CCCCN)NC(=O)[C@H](Cc1ccccc1)NC(=O)[C@H](CC(C)C)NC(=O)[C@H](CCCCN)NC(=O)[C@H](Cc1c[nH]c2ccccc12)NC(=O)[C@@H](N)CCCCN)C(=O)NCC(=O)N[C@@H](C)C(=O)N[C@H](C(=O)N[C@@H](CC(C)C)C(=O)N[C@@H](CCCCN)C(=O)N[C@H](C(=O)N[C@@H](CC(C)C)C(N)=O)C(C)C)C(C)C [compound 53]
MBC S. aur A.25923 [1]: 10 µg/mL (≈ 5.65 µM) | MBC P. aerug A.27853 [2]: 15 µg/mL (≈ 8.47 µM) | MBC E. coli A.25922 [3]: 15 µg/mL (≈ 8.47 µM) | MFC Candida A.10231 [4]: 30 µg/mL (≈ 16.9 µM)

KWKLAKKALALL-NH2 [compound 142]
MBC S. aur A.25923 [1]: INACT | MBC P. aerug A.27853 [2]: INACT | MBC E. coli A.25922 [3]: INACT | MFC Candida A.10231 [4]: INACT

FAKAIAKIAFGKGIGKVGKKLL-NH2 [compound 134]
MBC S. aur A.25923 [1]: INACT | MBC P. aerug A.27853 [2]: INACT | MBC E. coli A.25922 [3]: INACT | MFC Candida A.10231 [4]: INACT

CC(C)C[C@H](NC(=O)[C@H](C)NC(=O)[C@H](CCCCN)NC(=O)[C@H](CCCCN)NC(=O)[C@H](CC(C)C)NC(=O)[C@H](C)NC(=O)[C@H](CCCCN)NC(=O)[C@H](C)NC(=O)[C@H](CC(C)C)NC(=O)[C@H](C)NC(=O)[C@@H](N)Cc1ccccc1)C(N)=O [compound 166]
MBC S. aur A.25923 [1]: >250 µg/mL | MBC P. aerug A.27853 [2]: >250 µg/mL | MBC E. coli A.25922 [3]: >250 µg/mL | MFC Candida A.10231 [4]: >250 µg/mL

FAKLLAKLAKKSL-NH2 [compound 127]
MBC S. aur A.25923 [1]: INACT | MBC P. aerug A.27853 [2]: INACT | MBC E. coli A.25922 [3]: INACT | MFC Candida A.10231 [4]: INACT

FAKIIAKIAKIAKKIL-NH2 [compound 139]
MBC S. aur A.25923 [1]: INACT | MBC P. aerug A.27853 [2]: INACT | MBC E. coli A.25922 [3]: INACT | MFC Candida A.10231 [4]: INACT

CC(C)C[C@H](NC(=O)[C@H](CC(C)C)NC(=O)[C@H](CCCCN)NC(=O)[C@H](C)NC(=O)[C@H](CC(C)C)NC(=O)[C@H](C)NC(=O)[C@H](CCCCN)NC(=O)[C@H](CCCCN)NC(=O)[C@H](C)NC(=O)[C@H](CC(C)C)NC(=O)[C@H](CCCCN)NC(=O)[C@H](C)NC(=O)[C@@H](N)Cc1ccccc1)C(N)=O [compound 148]
MBC S. aur A.25923 [1]: >250 µg/mL | MBC P. aerug A.27853 [2]: >250 µg/mL | MBC E. coli A.25922 [3]: 150 µg/mL (≈ 106 µM) | MFC Candida A.10231 [4]: 100 µg/mL (≈ 70.7 µM)

FAKLLAKFLKKAL-NH2 [compound 113]
MBC S. aur A.25923 [1]: INACT | MBC P. aerug A.27853 [2]: INACT | MBC E. coli A.25922 [3]: INACT | MFC Candida A.10231 [4]: 40 µg/mL
